Experimental data: ChEMBL document CHEMBL1201862, “PubChem BioAssay data set” (2004)
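Five concentrations, 48 hours, 96-well plates. GI50: concentration for 50% inhibition of growth.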 The source made the active and inactive calls. No stated cut-off is given here; in the data, active = GI50 up to about 1.1 µM and inactive = higher.

Tests used:
Assay in all cases: inhibition of tumour cell growth, NCI panel, 48 h
TK-10 = test system: TK-10
EKVX = test system: EKVX
A498 = test system: A498
DU-145 = test system: DU-145
RPMI-8226 = test system: RPMI-8226
MDA-MB-435 = test system: MDA-MB-435
SK-MEL-2 = test system: SK-MEL-2
SK-MEL-5 = test system: SK-MEL-5
SF-539 = test system: SF-539
HT-29 = test system: HT-29
SF-268 = test system: SF-268
KM-20L2 = test system: KM-20L2
DMS-273 = test system: DMS-273
M14 = test system: M14
LXFL 529 = test system: LXFL 529
UO-31 = test system: UO-31
A549 = test system: A549
HCT-116 = test system: HCT-116
M19-MEL = test system: M19-MEL
XF498 = test system: XF498

Measured: GI50

C=CCN1C(=O)/C(=C/c2ccccc2)N=C1SC1OC(COC(=O)c2ccccc2)C(OC(=O)c2ccccc2)C1OC(=O)c1ccccc1 (configuration not stated)
inactive: TK-10 > 100 µM | EKVX > 100 µM | A498 49.8 µM | DU-145 > 100 µM | RPMI-8226 16.4 µM | MDA-MB-435 > 100 µM | SK-MEL-2 > 100 µM | SK-MEL-5 > 100 µM | SF-539 > 100 µM

Cc1cc(OCC(O)CO)ccc1Cl (configuration not stated)
inactive: HT-29 > 100 µM | SF-268 > 100 µM | TK-10 > 100 µM | KM-20L2 > 100 µM | DMS-273 > 100 µM | EKVX > 100 µM | A498 > 100 µM | RPMI-8226 > 100 µM | M14 > 100 µM | LXFL 529 > 100 µM | UO-31 > 100 µM | A549 > 100 µM | SK-MEL-2 > 100 µM | SK-MEL-5 > 100 µM | HCT-116 > 100 µM | M19-MEL > 100 µM | SF-539 > 100 µM

N#CCCN(CCC#N)c1ccc(/C=C2\N=C(c3cc([N+](=O)[O-])ccc3Cl)N(NC(=O)CC(=O)Nc3ccccc3Cl)C2=O)cc1
inactive: SF-268 > 100 µM | TK-10 > 100 µM | KM-20L2 16.3 µM | DMS-273 > 100 µM | EKVX > 100 µM | XF498 > 100 µM | RPMI-8226 > 100 µM | M14 > 100 µM | LXFL 529 > 100 µM | UO-31 > 100 µM | A549 > 100 µM | SK-MEL-2 > 100 µM | SK-MEL-5 > 100 µM | HCT-116 > 100 µM | M19-MEL > 100 µM | SF-539 > 100 µM

CC/C(CC(=O)CCC(=O)Nc1ccc(C)c(C)c1)=N\NC(=O)c1cc2ccccc2cc1O
inactive: HT-29 38.5 µM | SF-268 22.1 µM | KM-20L2 > 10 µM | EKVX 27.5 µM | M14 17.1 µM | LXFL 529 21.9 µM | UO-31 26 µM | SK-MEL-2 31 µM | HCT-116 37.6 µM | M19-MEL 28.8 µM

COc1ccc(NC(=O)/C(=C/c2ccc(N(CCC#N)CCC#N)cc2)NC(=O)c2cc([N+](=O)[O-])ccc2Cl)cc1
inactive: SF-268 27.2 µM | TK-10 66.1 µM | KM-20L2 36.2 µM | DMS-273 34.4 µM | EKVX 52.1 µM | XF498 > 100 µM | RPMI-8226 > 100 µM | M14 > 100 µM | LXFL 529 8.89 µM | UO-31 9.91 µM | A549 15.5 µM | SK-MEL-2 56.1 µM | SK-MEL-5 > 100 µM | HCT-116 48.2 µM | M19-MEL 56.4 µM | SF-539 18.9 µM

COC(=N)C(C)C
inactive: HT-29 > 100 µM | SF-268 > 100 µM | TK-10 > 100 µM | KM-20L2 > 100 µM | DMS-273 > 100 µM | RPMI-8226 > 100 µM | M14 > 100 µM | LXFL 529 > 100 µM | UO-31 > 100 µM | A549 > 100 µM | SK-MEL-5 > 100 µM | HCT-116 > 100 µM | M19-MEL > 100 µM | SF-539 > 100 µM
